Reference: patent publication US9358247B2, “Methods and compositions for promoting activity of anti-cancer therapies” (Oncology Research International Limited, priority 2006, dated 2016)

How the values were obtained:
Assay type in all cases: cell-based, human
[1] = test system: PC3, DU145, A549 and HT29 cell lines; test: Cancer cell growth inhibition, IC50 values used in assay for four cell lines (Example 5); details: Homo sapiens, value used to make up 50:50 IC50 mixtures
Procedure: (§1) Tumour cells were seeded in duplicate in 96-well plates at 2-5,000 per microtitre well containing RPMI culture medium/10% foetal calf serum. The cells were allowed to grow until the controls were nearly confluent after 5-6 days. Plates were then washed with PBS, fixed in ethanol and stained with 50 μL/well of SRB solution (sulforhodamine, 0.4% in 1% acetic acid), followed by washing with 1% acetic acid and solubilisation in Tris. The absorbance was read at 564 nm using an ELISA reader.
(§2) The IC50, or concentration required to inhibit cell growth by 50%, was determined from the percentage inhibition versus concentration data using the probit calculation methods of Finney (Finney D J (1971). Probit Analysis. 3rd Edition. Cambridge University Press).
The cell seeding and ELISA plate methodology of Example 2 were used for determining inhibition of four cancer cell lines. IC50 values were determined for the steroid saponins dioscin, deltonin and prosapogenin A, and their mixtures with cisplatin, docetaxel, doxorubicin and vincristine, using PC3, DU145, A549 and HT29 cell lines.

K562 cell line = test: Cancer cell growth inhibition, SRB dye assay (single agents and 50:50 IC50 mixtures); details: Homo sapiens, 144 h, Example 6, value used to make up 50:50 IC50 mixtures, read-out: IC50 values used in assay
Procedure: (§3) Cancer cells were seeded the day before application of drug in triplicate or quadruplicate in 96-well plates, allowed to grow in the presence of drug for 6 days before cell growth relative to untreated control wells was determined with a dye assay.
(§4) Cells were seeded in triplicate or quadruplicate at 3-4,000 per microtitre well in 90 μl of RPMI culture medium/10% foetal calf serum/penicillin, streptomycin mix, treated with 10 μl of drug (prepared in a dilution plate at 10× concentration required), and allowed to grow until the controls were nearly confluent (6 days).
(§5) SRB: Plates were washed with PBS, fixed with methylated spirits, washed with tap water and stained with 50 μL/well of SRB solution (sulforhodamine, 0.4% in 1% acetic acid), followed by washing with tap water and 1% acetic acid, solubilisation in Tris and absorbance read at 564 nm in an ELISA reader.
(§6) Data was collected using ELISA plate reader software—SOFTmax PRO3.1.2, then imported into EXCEL. The mean and SD of replicates were calculated as a % of control, after subtraction of the blank value (wells with no cells). A graph was plotted of % control vs dose of agent and IC50 (half maximal inhibitory concentration) values determined.
as §1, §2
(§7) The inhibitory data from each mixture was used to determine an IC50 of IC50 value, where the concentrations used were the Multiplying Factor values. In order to determine the actual IC50 contribution of each component in the two-component mixture, the IC50 of IC50 value was multiplied by the IC50 of the individual component. This can then be used to determine the reduction in IC50 contribution (ie, reduction in dose) of the chemotherapeutic agent due to the presence of the steroid saponin in the mixture. A simpler way of determining the reduction in dose is to use the following simple formula: […]
The cell seeding and ELISA plate methodology of Example 2 were used for determining inhibition of the K562 cell line.

A549 cell line = test: as above; details: Homo sapiens, 144 h, Example 4, value used to make up 50:50 IC50 mixtures, read-out: IC50 values used in assay
Procedure: as §3, §4, §5, §6, §1, §2, §7

Measured: IC50

C[C@@H]1CC[C@@]2(OC1)O[C@H]1C[C@H]3[C@@H]4CC=C5C[C@@H](O[C@@H]6O[C@H](CO)[C@@H](O[C@@H]7O[C@H](CO)[C@@H](O)[C@H](O)[C@H]7O)[C@H](O)[C@H]6O[C@@H]6O[C@@H](C)[C@H](O)[C@@H](O)[C@H]6O)CC[C@]5(C)[C@H]4CC[C@]3(C)[C@H]1[C@@H]2C [Deltonin, diosgenin Rha2, [Glc4], Glc]
1 µM: all assays above
